Values joined by “and” are separate entries in the source; they are usually repeats but may differ in a detail not shown here. Equal values may be shown once.
Experiment: Residual 14C-gentian violet in tissues of cockerels after repeated oral administration (Example 26)
Settings: for 14C dpm/Organ / 14C dpm/gram / ug/gram (ppm) in organ: individual bird; for Mean tissue residue: oral; for Mean tissue residue, mean of two values without the sport: 2.5 mg/kg

CN(C)c1ccc(C(=C2C=CC(=[N+](C)C)C=C2)c2ccc(N(C)C)cc2)cc1 [^14 C-gentian violet]
Residue 72 hrs. post-dose (breast muscle): 0.012 ppm
Residue 72 hrs. post-dose (gizzard muscle): 0.002 ppm
Residue 72 hrs. post-dose (heart muscle): 0.007 ppm
14C dpm/Organ (kidneys, 1X dose, 4 hours): 2,863 dpm/Organ and 4,271 dpm/Organ and 2,272 dpm/Organ
14C dpm/gram (kidneys, 1X dose, 4 hours): 1,184 dpm/gram and 1,634 dpm/gram and 1,269 dpm/gram
ug/gram (ppm) in organ (kidneys, 1X dose, 4 hours, 240 min): 0.089 ppm and 0.123 ppm and 0.095 ppm
14C dpm/Organ (kidneys, 1X dose, 12 hours): 1,746 dpm/Organ and 1,696 dpm/Organ and 3,452 dpm/Organ
14C dpm/gram (kidneys, 1X dose, 12 hours): 820 dpm/gram and 764 dpm/gram and 1,561 dpm/gram
ug/gram (ppm) in organ (kidneys, 1X dose, 12 hours, 720 min): 0.062 ppm and 0.057 ppm and 0.117 ppm
14C dpm/Organ (kidneys, 1X dose, 24 hours): 2,705 dpm/Organ and 1,481 dpm/Organ and 1,644 dpm/Organ
14C dpm/gram (kidneys, 1X dose, 24 hours): 1,463 dpm/gram and 639 dpm/gram and 561 dpm/gram
ug/gram (ppm) in organ (kidneys, 1X dose, 24 hours, 1440 min): 0.110 ppm and 0.048 ppm and 0.042 ppm
14C dpm/Organ (kidneys, 1X dose, 48 hours): 1,186 dpm/Organ and 863 dpm/Organ
14C dpm/gram (kidneys, 1X dose, 48 hours): 511 dpm/gram and 527 dpm/gram
ug/gram (ppm) in organ (kidneys, 1X dose, 48 hours, 2880 min): 0.038 ppm and 0.040 ppm
14C dpm/Organ (kidneys, 1X dose, 72 hours): 972 dpm/Organ and 759 dpm/Organ
14C dpm/gram (kidneys, 1X dose, 72 hours): 333 dpm/gram and 289 dpm/gram
ug/gram (ppm) in organ (kidneys, 1X dose, 72 hours, 4320 min): 0.025 ppm and 0.022 ppm
14C dpm/Organ (kidneys, 5X dose, 4 hours): 11,116 dpm/Organ and 9,227 dpm/Organ and 8.867 dpm/Organ and 12,505 dpm/Organ
14C dpm/gram (kidneys, 5X dose, 4 hours): 9,183 dpm/gram and 4,798 dpm/gram and 4,729 dpm/gram and 6,658 dpm/gram
ug/gram (ppm) in organ (kidneys, 5X dose, 4 hours, 240 min): 0.691 ppm and 0.361 ppm and 0.356 ppm and 0.501 ppm
14C dpm/Organ (kidneys, 5X dose, 12 hours): 11,939 dpm/Organ and 6,796 dpm/Organ and 6,537 dpm/Organ and 5,712 dpm/Organ and 7,815 dpm/Organ
14C dpm/gram (kidneys, 5X dose, 12 hours): 5,250 dpm/gram and 3,258 dpm/gram and 3,060 dpm/gram and 2,334 dpm/gram and 3,855 dpm/gram
ug/gram (ppm) in organ (kidneys, 5X dose, 12 hours, 720 min): 0.395 ppm and 0.245 ppm and 0.230 ppm and 0.176 ppm and 0.290 ppm
14C dpm/Organ (kidneys, 5X dose, 24 hours): 6,185 dpm/Organ and 6,443 dpm/Organ and 7,315 dpm/Organ and 3,623 dpm/Organ
14C dpm/gram (kidneys, 5X dose, 24 hours): 3,002 dpm/gram and 2,961 dpm/gram and 3,751 dpm/gram and 1,463 dpm/gram
ug/gram (ppm) in organ (kidneys, 5X dose, 24 hours, 1440 min): 0.226 ppm and 0.223 ppm and 0.282 ppm and 0.110 ppm
14C dpm/Organ (kidneys, 5X dose, 48 hours): 2,197 dpm/Organ and 3,750 dpm/Organ and 2,882 dpm/Organ
14C dpm/gram (kidneys, 5X dose, 48 hours): 982 dpm/gram and 1,647 dpm/gram and 1,508 dpm/gram
ug/gram (ppm) in organ (kidneys, 5X dose, 48 hours, 2880 min): 0.074 ppm and 0.124 ppm and 0.113 ppm
14C dpm/Organ (kidneys, 5X dose, 72 hours): 4,998 dpm/Organ and 1,843 dpm/Organ and 1,792 dpm/Organ
14C dpm/gram (kidneys, 5X dose, 72 hours): 4,044 dpm/gram and 844 dpm/gram and 1,042 dpm/gram
ug/gram (ppm) in organ (kidneys, 5X dose, 72 hours, 4320 min): 0.304 ppm and 0.067 ppm and 0.078 ppm
14C dpm/Organ (liver, 1X dose, 4 hours): 21,804 dpm/Organ and 36,280 dpm/Organ and 16,323 dpm/Organ
14C dpm/gram (liver, 1X dose, 4 hours): 3,084 dpm/gram and 5,753 dpm/gram and 2,493 dpm/gram
ug/gram (ppm) in organ (liver, 1X dose, 4 hours, 240 min): 0.232 ppm and 0.433 ppm and 0.188 ppm
14C dpm/Organ (liver, 1X dose, 12 hours): 5,477 dpm/Organ and 5,889 dpm/Organ and 19,188 dpm/Organ
14C dpm/gram (liver, 1X dose, 12 hours): 996 dpm/gram and 927 dpm/gram and 2,857 dpm/gram
ug/gram (ppm) in organ (liver, 1X dose, 12 hours, 720 min): 0.075 ppm and 0.070 ppm and 0.215 ppm
14C dpm/Organ (liver, 1X dose, 24 hours): 14,586 dpm/Organ and 5,165 dpm/Organ and 7,248 dpm/Organ
14C dpm/gram (liver, 1X dose, 24 hours): 2,890 dpm/gram and 830 dpm/gram and 851 dpm/gram
ug/gram (ppm) in organ (liver, 1X dose, 24 hours, 1440 min): 0.217 ppm and 0.062 ppm and 0.064 ppm
14C dpm/Organ (liver, 1X dose, 48 hours): 8,396 dpm/Organ and 6,073 dpm/Organ
14C dpm/gram (liver, 1X dose, 48 hours): 1,419 dpm/gram and 1,292 dpm/gram
ug/gram (ppm) in organ (liver, 1X dose, 48 hours, 2880 min): 0.107 ppm and 0.097 ppm
14C dpm/Organ (liver, 1X dose, 72 hours): 7,261 dpm/Organ and 3,744 dpm/Organ
14C dpm/gram (liver, 1X dose, 72 hours): 546 dpm/gram and 361 dpm/gram
ug/gram (ppm) in organ (liver, 1X dose, 72 hours, 4320 min): 0.041 ppm and 0.027 ppm
14C dpm/Organ (liver, 5X dose, 4 hours): 44,618 dpm/Organ and 50,607 dpm/Organ and 42,844 dpm/Organ and 46,652 dpm/Organ
14C dpm/gram (liver, 5X dose, 4 hours): 13,878 dpm/gram and 9,859 dpm/gram and 8,038 dpm/gram and 9,651 dpm/gram
ug/gram (ppm) in organ (liver, 5X dose, 4 hours, 240 min): 1.044 ppm and 0.742 ppm and 0.605 ppm and 0.726 ppm
14C dpm/Organ (liver, 5X dose, 12 hours): 66,438 dpm/Organ and 24,948 dpm/Organ and 17,753 dpm/Organ and 26,299 dpm/Organ and 68,033 dpm/Organ
14C dpm/gram (liver, 5X dose, 12 hours): 11,801 dpm/gram and 4,135 dpm/gram and 3,201 dpm/gram and 3,772 dpm/gram and 10,291 dpm/gram
ug/gram (ppm) in organ (liver, 5X dose, 12 hours, 720 min): 0.888 ppm and 0.311 ppm and 0.241 ppm and 0.284 ppm and 0.774 ppm
14C dpm/Organ (liver, 5X dose, 24 hours): 60,300 dpm/Organ and 67,384 dpm/Organ and 68,033 dpm/Organ and 20,674 dpm/Organ
14C dpm/gram (liver, 5X dose, 24 hours): 9.588 dpm/gram and 10,942 dpm/gram and 12,714 dpm/gram and 2,845 dpm/gram
ug/gram (ppm) in organ (liver, 5X dose, 24 hours, 1440 min): 0.721 ppm and 0.823 ppm and 0.957 ppm and 0.215 ppm
14C dpm/Organ (liver, 5X dose, 48 hours): 15,334 dpm/Organ and 27,176 dpm/Organ and 13,617 dpm/Organ
14C dpm/gram (liver, 5X dose, 48 hours): 2,649 dpm/gram and 5,220 dpm/gram and 3,102 dpm/gram
ug/gram (ppm) in organ (liver, 5X dose, 48 hours, 2880 min): 0.199 ppm and 0.393 ppm and 0.233 ppm
14C dpm/Organ (liver, 5X dose, 72 hours): 45,587 dpm/Organ and 10,991 dpm/Organ and 13,245 dpm/Organ
14C dpm/gram (liver, 5X dose, 72 hours): 21,927 dpm/gram and 2,447 dpm/gram and 2,991 dpm/gram
ug/gram (ppm) in organ (liver, 5X dose, 72 hours, 4320 min): 1.650 ppm and 0.184 ppm and 0.225 ppm
Residue 72 hrs. post-dose (kidney): 0.024 ppm
Elimination Rate Constant (Ke) (kidneys, 1X dose): -0.0209 h⁻¹
Mean tissue residue (kidneys, 1X dose (0.5 mg/kg), 4 hrs. post-dose): 0.102 ppm
Mean tissue residue (kidneys, 1X dose (0.5 mg/kg), 12 hrs. post-dose): 0.079 ppm
Mean tissue residue (kidneys, 1X dose (0.5 mg/kg), 24 hrs. post-dose): 0.067 ppm
Mean tissue residue (kidneys, 1X dose (0.5 mg/kg), 48 hrs. post-dose): 0.039 ppm
Mean tissue residue (kidneys, 1X dose (0.5 mg/kg), 72 hrs. post-dose): 0.024 ppm
Elimination Rate Constant (Ke) (kidneys, 5X dose): -0.0262 h⁻¹
Half-Life (t1/2) (kidneys, 5X dose): 26.7 h
Mean tissue residue (kidneys, 5X dose (2.5 mg/kg), 4 hrs. post-dose): 0.477 ppm
Mean tissue residue (kidneys, 5X dose (2.5 mg/kg), 12 hrs. post-dose): 0.267 ppm
Mean tissue residue (kidneys, 5X dose (2.5 mg/kg), 24 hrs. post-dose): 0.210 ppm
Mean tissue residue (kidneys, 5X dose (2.5 mg/kg), 48 hrs. post-dose): 0.104 ppm
Mean tissue residue (kidneys, 5X dose (2.5 mg/kg), 72 hrs. post-dose, includes a sport, high value among three): 0.150 ppm
Mean tissue residue, mean of two values without the sport (kidneys, 5X dose, 72 hrs. post-dose): 0.073 ppm
Residue 72 hrs. post-dose (liver): 0.034 ppm
Mean tissue residue (liver, 1X dose (0.5 mg/kg), 4 hrs. post-dose): 0.284 ppm
Mean tissue residue (liver, 1X dose (0.5 mg/kg), 12 hrs. post-dose): 0.120 ppm
Mean tissue residue (liver, 1X dose (0.5 mg/kg), 24 hrs. post-dose): 0.114 ppm
Mean tissue residue (liver, 1X dose (0.5 mg/kg), 48 hrs. post-dose): 0.102 ppm
Mean tissue residue (liver, 1X dose (0.5 mg/kg), 72 hrs. post-dose): 0.034 ppm
Mean tissue residue (liver, 5X dose (2.5 mg/kg), 4 hrs. post-dose): 0.779 ppm
Mean tissue residue (liver, 5X dose (2.5 mg/kg), 12 hrs. post-dose): 0.500 ppm
Mean tissue residue (liver, 5X dose (2.5 mg/kg), 24 hrs. post-dose): 0.679 ppm
Mean tissue residue (liver, 5X dose (2.5 mg/kg), 48 hrs. post-dose): 0.275 ppm
Mean tissue residue (liver, 5X dose (2.5 mg/kg), 72 hrs. post-dose, includes a sport, high value among three): 0.686 ppm
Mean tissue residue, mean of two values without the sport (liver, 5X dose, 72 hrs. post-dose): 0.205 ppm
Elimination Rate Constant (Ke) (livers, 1X dose): -0.0247 h⁻¹
Half-Life (t1/2) (livers, 1X dose): 28.0 h
Elimination Rate Constant (Ke) (livers, 5X dose): -0.0193 h⁻¹
Half-Life (t1/2) (livers, 5X dose): 35.9 h
Residue 72 hrs. post-dose (skin/fat): 0.016 ppm
Residue 72 hrs. post-dose (thigh muscle): 0.012 ppm
